Patent publication US20220088100A1, “COSMETIC, PHARMACEUTICAL AND NUTRACEUTICAL USE OF AN EXTRACT DERIVED FROM CANNABISSATIVA CELL CULTURES” (ARTERRA BIOSCIENCE S.P.A., priority 2018, published 2022)
Where a name gives a salt, the structure may show the parent alone.

Test system: histamine production in RAW 264.7 cells (macrophages)
Test: Histamine content in macrophages stressed with CGRP
Assay type: cell-based
Conditions: RAW 264.7, 50 μg/ml 2 h, then 10 nM CGRP 16 h; reduction compared with that of the extract
Description: To determine whether the plant cell culture extract according to the invention was able to reduce the production of histamine induced by the CGRP peptide in the immune system cells, an assay was conducted for the quantization of the histamine content in macrophages subjected to a stress condition by the CGRP neuropeptide.
RAW 264.7 cells were seeded in 96-well plates in an initial number of 5×10^4, and after 16 h, they were treated with different doses of the extract or with the anti-histamine compound cetirizine dihydrochloride (50 μg/ml), used as a positive control of the experiment. After 2 h of treatment with the extract or with cetirizine, the production of histamine was induced by the treatment with 10 nM of CGRP and, after 16 h, the amount of histamine was measured by adding 100 μl of methanol containing 0.4 M NaOH and 1 mg/ml of o-Phthaldialdehyde (OPT). After 10 minutes of incubation at room temperature, 50 μl of 0.1M HCl was added to each well to stop the reaction. Fluorescence was measured at 443 nm using a 360 nm excitation wavelength from the multi-plate reader, Victor3 (Perkin Elmer). The histamine content was calculated as a percentage of the value of the control cells stressed with 10 nM CGRP, arbitrarily set as 100%.

Question: For `O=C(O)COCCN1CCN(C(c2ccccc2)c2ccc(Cl)cc2)CC1` (stereo not shown) [cetirizine, cetirizine dihydrochloride], which “production of histamine in macrophages, positive control” value is on record?
Answer: Its value is “similarly”.
